Test results from ChEMBL document CHEMBL1201862, “PubChem BioAssay data set” (2004).
Activity calls are given as the source filed them.

Legend:
[1] = target: Cytochrome P450 3A4 (Homo sapiens, UniProt P08684);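 further: CYP3A4 tested as one member of a cytochrome P450 panel screen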
[2] = target: Cytochrome P450 2C19 (Homo sapiens, UniProt P33261); experiment: Cytochrome panel assay with activity outcomes. Panel member name: p450-cyp2c19 Compounds with AC50 equal or less than 10 uM are considered active; assay type: functional
Cytochrome P450 2C19, sequence (P33261 whole entry): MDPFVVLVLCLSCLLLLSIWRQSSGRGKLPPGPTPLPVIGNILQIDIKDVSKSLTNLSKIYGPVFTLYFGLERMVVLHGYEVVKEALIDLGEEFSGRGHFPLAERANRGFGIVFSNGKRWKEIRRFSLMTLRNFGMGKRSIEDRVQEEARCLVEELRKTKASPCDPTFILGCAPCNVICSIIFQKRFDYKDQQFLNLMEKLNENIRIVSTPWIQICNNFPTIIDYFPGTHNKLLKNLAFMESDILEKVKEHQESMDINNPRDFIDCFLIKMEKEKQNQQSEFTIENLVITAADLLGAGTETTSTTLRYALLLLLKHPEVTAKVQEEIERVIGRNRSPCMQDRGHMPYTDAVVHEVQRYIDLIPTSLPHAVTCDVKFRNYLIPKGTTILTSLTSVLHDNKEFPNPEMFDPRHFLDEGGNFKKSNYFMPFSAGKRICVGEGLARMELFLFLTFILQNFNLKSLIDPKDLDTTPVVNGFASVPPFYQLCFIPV

[3] = Luminescence Cell-Based Dose Response HTS to Identify Inhibitors of 5'UTR Stem-Loop Driven Prion Protein mRNA Translation in H4 Neuroglioblastoma Cells. [Related pubchem assays: 1827 (Project Summary), 1813 (Primary HTS)]; assay type: functional
[4] = inhibitors of firefly luciferase expression or activity, dose response, H4 neuroglioma cells, luminescence (AID 1990); assay type: functional, cell-based
[5] = inhibitors of SNCA 5'UTR-driven reporter translation, confirmation, H4 neuroglioma cells, luminescence (AID 1988); assay type: functional, cell-based
[6] = target: Cytochrome P450 2D6 (Homo sapiens, UniProt P10635);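 further: CYP2D6 member of a cytochrome P450 panel assay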
Cytochrome P450 2D6, sequence (P10635 whole entry): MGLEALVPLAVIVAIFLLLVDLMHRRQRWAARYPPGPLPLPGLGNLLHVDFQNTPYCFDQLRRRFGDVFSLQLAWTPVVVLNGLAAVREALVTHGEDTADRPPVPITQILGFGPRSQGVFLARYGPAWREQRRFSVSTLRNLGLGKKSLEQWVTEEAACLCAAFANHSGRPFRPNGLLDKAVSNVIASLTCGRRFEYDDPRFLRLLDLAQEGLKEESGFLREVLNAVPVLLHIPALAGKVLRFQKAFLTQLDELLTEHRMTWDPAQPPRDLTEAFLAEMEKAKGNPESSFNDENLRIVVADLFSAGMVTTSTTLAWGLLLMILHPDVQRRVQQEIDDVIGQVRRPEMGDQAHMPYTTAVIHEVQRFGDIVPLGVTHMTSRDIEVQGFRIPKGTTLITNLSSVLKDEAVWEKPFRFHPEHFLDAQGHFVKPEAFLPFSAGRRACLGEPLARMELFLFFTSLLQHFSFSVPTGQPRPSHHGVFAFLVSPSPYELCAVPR

[7] = target: T1, Protein RecA (Mycobacterium tuberculosis, UniProt P9WHJ3); experiment: Fluorescence Cell-Free Homogeneous Dose Retest to Identify Inhibitors of RecA-Intein Splicing Activity. [Related pubchem assays (depositor defined):AID2097, AID2223, AID489010, AID492950]; assay type: functional
T1 sequence (P9WHJ3 whole entry): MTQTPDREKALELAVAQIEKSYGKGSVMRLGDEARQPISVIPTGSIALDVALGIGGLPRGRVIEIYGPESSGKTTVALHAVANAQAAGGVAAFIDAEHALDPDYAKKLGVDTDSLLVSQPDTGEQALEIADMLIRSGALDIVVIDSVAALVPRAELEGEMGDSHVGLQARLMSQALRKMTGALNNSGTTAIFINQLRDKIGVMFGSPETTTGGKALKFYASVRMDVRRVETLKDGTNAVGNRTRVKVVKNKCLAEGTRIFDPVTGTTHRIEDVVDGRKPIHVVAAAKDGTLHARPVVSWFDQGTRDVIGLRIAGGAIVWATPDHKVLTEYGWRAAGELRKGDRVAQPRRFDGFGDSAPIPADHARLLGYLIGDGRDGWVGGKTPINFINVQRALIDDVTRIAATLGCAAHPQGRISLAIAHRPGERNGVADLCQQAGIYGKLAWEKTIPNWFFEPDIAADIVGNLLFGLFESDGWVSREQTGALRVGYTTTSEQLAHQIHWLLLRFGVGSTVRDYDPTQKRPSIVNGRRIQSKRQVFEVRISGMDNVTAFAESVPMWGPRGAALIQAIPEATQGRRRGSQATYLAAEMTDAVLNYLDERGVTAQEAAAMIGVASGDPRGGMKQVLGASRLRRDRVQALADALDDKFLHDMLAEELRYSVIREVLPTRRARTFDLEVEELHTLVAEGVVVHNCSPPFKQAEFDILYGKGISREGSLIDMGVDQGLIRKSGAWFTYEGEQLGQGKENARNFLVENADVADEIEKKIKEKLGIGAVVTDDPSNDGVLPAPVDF

[8] = system: H4; experiment: Luminescence Cell-Based Dose Response HTS to Identify Activators of 5'UTR Stem-Loop Driven Prion Protein mRNA Translation in H4 Neuroglioblastoma Cells. [Related pubchem assays: 1829 (Project Summary), 1814 (Primary HTS)]; assay type: functional; conditions: Homo sapiens
[9] = Luminescence Cell-Based Dose Response HTS to Identify Activators of Luciferase Translation or Activity in H4 […] Cells. [Related pubchem assays: 1829 (Project Summary), 1814 (Primary HTS)]; assay type: functional
[10] = system: Streptococcus; experiment: Group A Streptococcus viability loss, dose response, counter-screen for streptokinase expression inhibitor project, luminescence, BacTiterGlo (AID 1915); assay type: functional, organism-based;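 further: potency for reduction of bacterial viability or growth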
[11] = system: Streptococcus sp. 'group A'; experiment: growth inhibition of control SK(-) GAS strain, dose response, counter-screen for streptokinase expression inhibitor project, luminescence, kanamycin, BacTiterGlo, confirmation (AID 1900); assay type: functional, organism-based
[12] = target: T2, Streptokinase A (Streptococcus pyogenes serotype M1, UniProt P10520); experiment: S. pyogenes streptokinase expression inhibitors, potency, dose response, plasminogen activation absorbance, OD405 (AID 1914); assay type: functional, Streptococcus pyogenes M1 GAS;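 further: secreted streptokinase activity via plasminogen activation per viability signal from cell pellet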
T2 sequence (P10520 whole entry): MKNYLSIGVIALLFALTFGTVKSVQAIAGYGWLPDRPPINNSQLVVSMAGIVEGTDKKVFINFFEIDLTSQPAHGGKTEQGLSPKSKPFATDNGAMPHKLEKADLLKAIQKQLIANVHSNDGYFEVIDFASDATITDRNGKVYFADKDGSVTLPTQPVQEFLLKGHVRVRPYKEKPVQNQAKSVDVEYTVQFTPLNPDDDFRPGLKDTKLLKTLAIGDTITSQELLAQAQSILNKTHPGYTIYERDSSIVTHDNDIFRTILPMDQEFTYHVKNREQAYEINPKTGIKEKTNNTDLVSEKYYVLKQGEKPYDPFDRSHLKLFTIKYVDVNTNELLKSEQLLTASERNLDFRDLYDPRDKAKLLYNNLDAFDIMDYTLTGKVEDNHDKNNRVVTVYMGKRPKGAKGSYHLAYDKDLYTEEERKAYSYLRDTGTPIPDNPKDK

Cytochrome P450 3A4, sequence (P08684 whole entry): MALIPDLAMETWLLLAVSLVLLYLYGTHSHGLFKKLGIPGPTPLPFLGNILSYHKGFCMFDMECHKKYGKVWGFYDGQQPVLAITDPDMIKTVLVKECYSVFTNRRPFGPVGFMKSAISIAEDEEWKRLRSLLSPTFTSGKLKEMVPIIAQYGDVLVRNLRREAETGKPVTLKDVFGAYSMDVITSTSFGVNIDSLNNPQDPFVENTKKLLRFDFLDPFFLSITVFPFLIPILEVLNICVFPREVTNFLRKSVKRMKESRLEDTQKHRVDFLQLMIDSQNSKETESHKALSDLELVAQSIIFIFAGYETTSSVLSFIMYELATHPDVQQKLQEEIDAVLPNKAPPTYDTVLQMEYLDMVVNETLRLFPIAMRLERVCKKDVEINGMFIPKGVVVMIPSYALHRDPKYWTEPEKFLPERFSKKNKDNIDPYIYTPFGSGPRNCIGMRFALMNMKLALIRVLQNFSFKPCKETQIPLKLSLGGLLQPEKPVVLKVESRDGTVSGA

SC1=NC2=C(C(c3ccc(Br)cc3)N1)N1CCC2CC1 (stereo unspecified)
AC50 [1]: 1.58 µM (inconclusive)

COCCn1c(=O)c(C)nc2cnc(Oc3cccc(Cl)c3)nc21
AC50 ([2]; read-out: AC50): 20 µM (inconclusive)

CCn1c(S)nnc1CC(=O)Nc1ccc(C)cc1
EC50 [3]: > 120 µM (not active) | EC50 [4]: > 120 µM (not active) | EC50 [5]: > 120 µM (not active)

CCOC(=O)CSc1nnc(CSc2nc3sc4c(c3c(=O)[nH]2)CCCC4)n1-c1ccccc1
AC50 [1]: 1 µM (inconclusive)

COc1cccc(N2C(=O)C(CC(=O)Nc3ccccc3)N(C3CCCCC3)C2=O)c1 (stereo unspecified)
AC50 [6]: 17.8 µM (inconclusive)

O=C(/C=C\c1ccccc1)c1ccccc1O
AC50 ([2]; read-out: AC50): 3.98 µM (inconclusive)

Cc1ccccc1-c1nc(NCc2cccnc2)c2ccccc2n1
AC50 [6]: 39.8 µM (inconclusive) | AC50 ([2]; read-out: AC50): 15.8 µM (inconclusive)

O=c1c(-c2cccs2)nc2cnc(Oc3cccc(Cl)c3)nc2n1C[C@H]1CCCO1
AC50 [1]: 10 µM (inconclusive)

CCO/C=C1/C(=O)N(Cc2ccccc2)C(=O)c2ccccc21
EC50 [7]: > 380 µM (inactive)

CC(=O)N1CCC[C@@]2(CCN(Cc3ccc(C#N)cc3)C2)C1
AC50 [6]: 12.6 µM (inconclusive)

CCOc1cc(C2NC(=O)NC(c3ccccc3)=C2C(C)=O)ccc1OCC(N)=O (stereo unspecified)
AC50 [1]: 20 µM (inconclusive)

CCOC(=O)c1cnc2c(OC)cccc2c1N1CCN(c2ccccn2)CC1
EC50 [3]: 53.9 µM (active) | EC50 [4]: 15.6 µM (active) | EC50 [5]: 11.5 µM (active)

COc1ccc2c(c1)C1=NN(/C(C)=C\C(C)=O)C(c3ccccc3)C1CC2 (stereo unspecified)
EC50 [8]: 7.74 µM (active) | EC50 [9]: 24.7 µM (active)

COc1ccc(/C=C/C(=O)c2c(C)nc3ccccn23)cc1
EC50 [8]: > 120 µM (not active) | EC50 [9]: 0.225 µM (active)

O=S(=O)(c1ccc(F)cc1)c1nc(-c2ccccc2)oc1N1CCOCC1
EC50 [10]: > 150 µM (not active) | EC50 [11]: > 150 µM (not active) | EC50 [12]: > 150 µM (not active)

COCCNc1ncnc2ccc(-c3c(C)noc3C)cc12
AC50 [1]: 31.6 µM (inconclusive)

C[C@@]12C(=O)N(Cc3ccccc3)CC(=O)N1[C@H](/C=C/c1ccccc1)[C@@H]1C(=O)N(c3ccccc3)C(=O)[C@@H]12
EC50 [3]: > 120 µM (not active) | EC50 [4]: 25.8 µM (active) | EC50 [5]: 14.9 µM (active)

COc1ccc(-c2cc(C)no2)cc1S(=O)(=O)N1CCOc2ccccc21
EC50 [3]: 83.5 µM (active) | EC50 [4]: > 120 µM (not active) | EC50 [5]: 31.4 µM (active)

O=C(/C=C/c1c(F)cccc1Cl)Nc1ncccn1
EC50 [8]: 7.88 µM (active) | EC50 [9]: 0.974 µM (active)

COc1ccc(-n2c(=O)c(C)nc3cnc(OC)nc32)cc1
AC50 ([2]; read-out: AC50): 39.8 µM (inconclusive) | AC50 [1]: 25.1 µM (inconclusive)

COc1cccc(-c2nc(NC3CCNCC3)c3ccccc3n2)c1
AC50 [1]: 25.1 µM (inconclusive)

COc1ccc([N+](=O)[O-])cc1N=C(S)NC(NC(=O)C(c1ccccc1)c1ccccc1)C(Cl)(Cl)Cl (stereo unspecified)
EC50 [10]: > 150 µM (not active) | EC50 [11]: 14.4 µM (active)

COc1ccc([N+](=O)[O-])cc1NC(=S)NC(NC(=O)C(c1ccccc1)c1ccccc1)C(Cl)(Cl)Cl (stereo unspecified)
EC50 [12]: > 150 µM (not active)

COc1ccc(NC(=O)N2CC[C@@]3(CCCN(C(=O)c4cccn4C)C3)C2)cc1
AC50 [1]: 2 µM (inconclusive)

CN(C)c1ccc(-c2nc(NCc3cccnc3)c3ccccc3n2)cc1
AC50 ([2]; read-out: AC50): 10 µM (inconclusive)

O=C(c1ccncc1)N1CCC2(CCN(Cc3nccs3)CC2)CC1
AC50 [6]: 15.8 µM (inconclusive)

CCc1ccc(CNC(=O)C2CCN(S(=O)(=O)N3CC(C)CC(C)C3)CC2)cc1 (stereo unspecified)
EC50 [3]: > 120 µM (not active) | EC50 [4]: > 120 µM (not active) | EC50 [5]: 93.3 µM (active)

COc1ccc(CCNS(=O)(=O)c2cccc3cccnc23)cc1OC
EC50 [3]: > 120 µM (not active) | EC50 [4]: > 120 µM (not active) | EC50 [5]: > 120 µM (not active)

CCCC[C@@H]1C[C@H]1C(NC(=O)Cc1ccccc1)c1ccc(-c2ccccc2)cc1 (stereo partly specified)
AC50 [1]: 12.6 µM (inconclusive)

CC(=O)NCCNc1ncncc1-c1ccccc1CN(C)C
AC50 [6]: 39.8 µM (inconclusive) | AC50 [1]: 12.6 µM (inconclusive)

CS(=O)(=O)N1CCC2(CCCN(C(c3ccccc3)c3ccccc3)C2)CC1
AC50 ([2]; read-out: AC50): 20 µM (inconclusive)

CCOC(=O)c1nnn(-c2nonc2-n2cccc2)c1CN1CCC(C)CC1
EC50 [10]: > 150 µM (not active) | EC50 [11]: 9.92 µM (active) | EC50 [12]: 14.9 µM (active)

O=C(C1CCCN(S(=O)(=O)c2ccc(Br)cc2)C1)N1CCN(Cc2ccccc2)CC1 (stereo unspecified)
EC50 [3]: > 120 µM (not active) | EC50 [4]: 15.5 µM (active) | EC50 [5]: 22.7 µM (active)

O=C(c1cnc(N2CCN(c3ncccn3)CC2)c2ccccc12)N1CCN(c2ncccn2)CC1
AC50 [6]: 11.2 µM (inconclusive) | AC50 [1]: 39.8 µM (inconclusive)

CCCc1nc2oc3c(NCCCN(C)C)ncnc3c2c2c1CCCC2
EC50 [3]: > 120 µM (not active) | EC50 [4]: 12.5 µM (active) | EC50 [5]: 8.73 µM (active)

CCC(C)(C)n1nnnc1C(c1ccc(C)cc1)N1CCC(C)CC1 (stereo unspecified)
AC50 [6]: 17.8 µM (inconclusive)

COC(=O)C1N2C(=O)[C@@H](NC(=O)COc3ccccc3)[C@H]2SC1(C)C (stereo partly specified)
EC50 [10]: 0.889 µM (active) | EC50 [11]: 0.535 µM (active)

COc1ccc(O[C@H]2C=C[C@@H](c3ccccc3)O[C@H]2COC(=O)N2CCCCC2)cc1
AC50 [6]: 3.98 µM (inconclusive)

CCOc1ccc(NC(=O)CSc2nnc(Cc3ccccc3)c(=O)n2N)cc1
EC50 [10]: > 150 µM (not active) | EC50 [11]: > 150 µM (not active) | EC50 [12]: > 150 µM (not active)

Cc1ccc(CCN2CC(C(=O)NCCN3CCCCCC3)CC2=O)cc1 (stereo unspecified)
AC50 [6]: 20 µM (inconclusive) | AC50 [2]: inconclusive | AC50 [1]: 35.5 µM (inconclusive)

O=C(/C=C/c1ccccc1)N/C(=C/c1ccccc1)C(=O)Nc1ccccc1O
AC50 [6]: 22.4 µM (inconclusive) | AC50 ([2]; read-out: AC50): 17.8 µM (inconclusive)

CCOc1ccccc1NS(=O)(=O)c1ccc(Br)s1
EC50 [3]: 25.2 µM (active) | EC50 [4]: > 120 µM (not active) | EC50 [5]: > 120 µM (not active)

CC(=O)Nc1ccc(S(=O)(=O)N(Cc2cccnc2)Cc2cc3ccc(C)cc3nc2O)cc1
EC50 [3]: > 120 µM (not active) | EC50 [4]: > 120 µM (not active) | EC50 [5]: > 120 µM (not active)

Cc1ccc(Sc2nc(C)cc(C)c2S(C)(=O)=O)cc1
AC50 [6]: 17.8 µM (inconclusive) | AC50 [1]: 14.1 µM (inconclusive)

Cc1ccc2[nH]c(SCC(=O)Nc3nnc(SCC(N)=O)s3)nc2c1
AC50 ([2]; read-out: AC50): 22.4 µM (inconclusive) | AC50 [1]: 22.4 µM (inconclusive)

Cc1cccc(OCC(=O)NCC(=O)N/N=C/c2cc(Br)cc(Br)c2O)c1
EC50 [10]: 1.66 µM (active) | EC50 [11]: 0.486 µM (active)

CNCCc1c[nH]c2ccc(O)cc12
AC50 [6]: 39.8 µM (inconclusive)

O=C(O)CCC(=O)N1CCC[C@H]1C(=O)O
AC50 [2]: inconclusive

O=[N+]([O-])c1cc(/C=N/O)ccc1SCc1ccccc1
AC50 ([2]; read-out: AC50): 6.31 µM (inconclusive) | AC50 [1]: 11.2 µM (inconclusive)
